Laboratory results reported in patent US10251395B2, “Substituted furano-/thienocycloalkylamino-2-pyrimidine derivatives and use thereof for controlling undesired plant growth” (Bayer CropScience Aktiengesellschaft, priority 2015, dated 2019).
Blank lines part the entries; values can stand above or below the compound they belong to.

Columns and labels:
Abutilon theophrasti [1] = experiment: Pre-emergence herbicidal effect; type: in vivo; settings: scored visually after 3 weeks
Summary of the method: (§1)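 Pre-em soil-surface spray; sandy loam, seeds covered with soil. WP/EC, aq. suspension/emulsion, 600–800 L/ha, +0.2% wetting agent. GH 3 wk; visual % activity vs untreated (100% = dead).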

Alopecurus myosuroides [2] = experiment: Pre-emergence herbicidal effect; type: in vivo; settings: scored visually after 3 weeks
Summary of the method: as §1

Amaranthus retroflexus [3] = experiment: Pre-emergence herbicidal effect; type: in vivo; settings: scored visually after 3 weeks
Summary of the method: as §1

Avena fatua [4] = experiment: Pre-emergence herbicidal effect; type: in vivo; settings: Dosage 320 g/ha, scored visually after 3 weeks
Summary of the method: as §1

Echinochloa crus-galli [5] = experiment: Pre-emergence herbicidal effect; type: in vivo; settings: scored visually after 3 weeks
Summary of the method: as §1

Ipomoea purpurea [6] = experiment: Pre-emergence herbicidal effect; type: in vivo; settings: scored visually after 3 weeks
Summary of the method: as §1

Lolium multiflorum [7] = experiment: Pre-emergence herbicidal effect; type: in vivo; settings: scored visually after 3 weeks
Summary of the method: as §1

Matricaria inodora [8] = experiment: Pre-emergence herbicidal effect; type: in vivo; settings: scored visually after 3 weeks
Summary of the method: as §1

Polygonum convolvulus [9] = experiment: Pre-emergence herbicidal effect; type: in vivo; settings: scored visually after 3 weeks
Summary of the method: as §1

Setaria viridis [10] = experiment: Pre-emergence herbicidal effect; type: in vivo; settings: scored visually after 3 weeks
Summary of the method: as §1

Stellaria media [11] = experiment: Pre-emergence herbicidal effect; type: in vivo; settings: scored visually after 3 weeks
Summary of the method: as §1

Veronica persica [12] = experiment: Pre-emergence herbicidal effect; type: in vivo; settings: scored visually after 3 weeks
Summary of the method: as §1

Viola tricolor [13] = experiment: Pre-emergence herbicidal effect; type: in vivo; settings: scored visually after 3 weeks
Summary of the method: as §1

Abutilon theophrasti [14] = experiment: Post-emergence herbicidal effect; type: in vivo; settings: assessed visually after about 3 weeks vs untreated controls
Summary of the method: (§2)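 Sow in sandy loam; grow in greenhouse 2–3 wk; spray one-leaf plants with WP or EC suspension/emulsion (600–800 L/ha water, 0.2% wetter); hold ~3 wk under optimal conditions; rate visually vs untreated (0–100%).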

Alopecurus myosuroides [15] = experiment: Post-emergence herbicidal effect; type: in vivo; settings: assessed visually after about 3 weeks vs untreated controls
Summary of the method: as §2

Amaranthus retroflexus [16] = experiment: Post-emergence herbicidal effect; type: in vivo; settings: assessed visually after about 3 weeks vs untreated controls
Summary of the method: as §2

Avena fatua [17] = experiment: Post-emergence herbicidal effect; type: in vivo; settings: assessed visually after about 3 weeks vs untreated controls
Summary of the method: as §2

Echinochloa crus-galli [18] = experiment: Post-emergence herbicidal effect; type: in vivo; settings: assessed visually after about 3 weeks vs untreated controls
Summary of the method: as §2

Ipomoea purpurea [19] = experiment: Post-emergence herbicidal effect; type: in vivo; settings: assessed visually after about 3 weeks vs untreated controls
Summary of the method: as §2

Lolium multiflorum [20] = experiment: Post-emergence herbicidal effect; type: in vivo; settings: assessed visually after about 3 weeks vs untreated controls
Summary of the method: as §2

Matricaria inodora [21] = experiment: Post-emergence herbicidal effect; type: in vivo; settings: assessed visually after about 3 weeks vs untreated controls
Summary of the method: as §2

Polygonum convolvulus [22] = experiment: Post-emergence herbicidal effect; type: in vivo; settings: assessed visually after about 3 weeks vs untreated controls
Summary of the method: as §2

Setaria viridis [23] = experiment: Post-emergence herbicidal effect; type: in vivo; settings: assessed visually after about 3 weeks vs untreated controls
Summary of the method: as §2

Stellaria media [24] = experiment: Post-emergence herbicidal effect; type: in vivo; settings: assessed visually after about 3 weeks vs untreated controls
Summary of the method: as §2

Veronica persica [25] = experiment: Post-emergence herbicidal effect; type: in vivo; settings: assessed visually after about 3 weeks vs untreated controls
Summary of the method: as §2

Viola tricolor [26] = experiment: Post-emergence herbicidal effect; type: in vivo; settings: assessed visually after about 3 weeks vs untreated controls
Summary of the method: as §2

logP (HCOOH) = type: physicochemical; settings: for chromatographic logP: HCOOH (formic acid)
Excerpt: Table 2 (physicochemical characterization of selected synthesis examples)

Cyperus esculentus = experiment: Pre-emergence herbicidal effect; type: in vivo; settings: Dosage 320 g/ha, scored visually after 3 weeks
Summary of the method: as §1

Structure (SMILES): Cc1cc2c(s1)CCCC2Nc1ncc(C(F)(F)F)c(N)n1 (racemic) [compound 257]
- ABUTH pre-emergence efficacy (herbicidal activity) (Abutilon theophrasti [1]; Dosage 80 g/ha): 70%
- ABUTH pre-emergence efficacy (herbicidal activity) (Abutilon theophrasti [1]; Dosage 320 g/ha): 100%
- ALOMY pre-emergence efficacy (herbicidal activity) (Alopecurus myosuroides [2]; Dosage 80 g/ha): 100%
- ALOMY pre-emergence efficacy (herbicidal activity) (Alopecurus myosuroides [2]; Dosage 320 g/ha): 100%
- AMARE pre-emergence efficacy (herbicidal activity) (Amaranthus retroflexus [3]; Dosage 80 g/ha): 100%
- AMARE pre-emergence efficacy (herbicidal activity) (Amaranthus retroflexus [3]; Dosage 320 g/ha): 100%
- AVEFA pre-emergence efficacy (herbicidal activity) (Avena fatua [4]): 100%
- ECHCG pre-emergence efficacy (herbicidal activity) (Echinochloa crus-galli [5]; Dosage 80 g/ha): 100%
- ECHCG pre-emergence efficacy (herbicidal activity) (Echinochloa crus-galli [5]; Dosage 320 g/ha): 100%
- PHBPU pre-emergence efficacy (herbicidal activity) (Ipomoea purpurea [6]; Dosage 320 g/ha): 100%
- LOLMU pre-emergence efficacy (herbicidal activity) (Lolium multiflorum [7]; Dosage 80 g/ha): 100%
- LOLMU pre-emergence efficacy (herbicidal activity) (Lolium multiflorum [7]; Dosage 320 g/ha): 100%
- MATIN pre-emergence efficacy (herbicidal activity) (Matricaria inodora [8]; Dosage 80 g/ha): 100%
- MATIN pre-emergence efficacy (herbicidal activity) (Matricaria inodora [8]; Dosage 320 g/ha): 100%
- POLCO pre-emergence efficacy (herbicidal activity) (Polygonum convolvulus [9]; Dosage 80 g/ha): 100%
- POLCO pre-emergence efficacy (herbicidal activity) (Polygonum convolvulus [9]; Dosage 320 g/ha): 100%
- SETVI pre-emergence efficacy (herbicidal activity) (Setaria viridis [10]; Dosage 80 g/ha): 100%
- SETVI pre-emergence efficacy (herbicidal activity) (Setaria viridis [10]; Dosage 320 g/ha): 100%
- STEME pre-emergence efficacy (herbicidal activity) (Stellaria media [11]; Dosage 80 g/ha): 100%
- STEME pre-emergence efficacy (herbicidal activity) (Stellaria media [11]; Dosage 320 g/ha): 100%
- VERPE pre-emergence efficacy (herbicidal activity) (Veronica persica [12]; Dosage 80 g/ha): 100%
- VERPE pre-emergence efficacy (herbicidal activity) (Veronica persica [12]; Dosage 320 g/ha): 100%
- VIOTR pre-emergence efficacy (herbicidal activity) (Viola tricolor [13]; Dosage 80 g/ha): 100%
- VIOTR pre-emergence efficacy (herbicidal activity) (Viola tricolor [13]; Dosage 320 g/ha): 100%
- post-emergence efficacy ABUTH (Abutilon theophrasti [14]; 80 g/ha): 90%
- post-emergence efficacy ABUTH (Abutilon theophrasti [14]; 320 g/ha): 90%
- post-emergence efficacy ALOMY (Alopecurus myosuroides [15]; 80 g/ha): 70%
- post-emergence efficacy ALOMY (Alopecurus myosuroides [15]; 320 g/ha): 90%
- post-emergence efficacy AMARE (Amaranthus retroflexus [16]; 80 g/ha): 80%
- post-emergence efficacy AMARE (Amaranthus retroflexus [16]; 320 g/ha): 90%
- post-emergence efficacy AVEFA (Avena fatua [17]; 80 g/ha): 70%
- post-emergence efficacy AVEFA (Avena fatua [17]; 320 g/ha): 100%
- post-emergence efficacy ECHCG (Echinochloa crus-galli [18]; 80 g/ha): 90%
- post-emergence efficacy ECHCG (Echinochloa crus-galli [18]; 320 g/ha): 100%
- post-emergence efficacy PHBPU (Ipomoea purpurea [19]; 80 g/ha): 80%
- post-emergence efficacy PHBPU (Ipomoea purpurea [19]; 320 g/ha): 90%
- post-emergence efficacy LOLMU (Lolium multiflorum [20]; 80 g/ha): 100%
- post-emergence efficacy LOLMU (Lolium multiflorum [20]; 320 g/ha): 100%
- post-emergence efficacy MATIN (Matricaria inodora [21]; 80 g/ha): 90%
- post-emergence efficacy MATIN (Matricaria inodora [21]; 320 g/ha): 90%
- post-emergence efficacy POLCO (Polygonum convolvulus [22]; 80 g/ha): 60%
- post-emergence efficacy POLCO (Polygonum convolvulus [22]; 320 g/ha): 80%
- post-emergence efficacy SETVI (Setaria viridis [23]; 80 g/ha): 90%
- post-emergence efficacy SETVI (Setaria viridis [23]; 320 g/ha): 90%
- post-emergence efficacy STEME (Stellaria media [24]; 80 g/ha): 80%
- post-emergence efficacy STEME (Stellaria media [24]; 320 g/ha): 100%
- post-emergence efficacy VERPE (Veronica persica [25]; 320 g/ha): 100%
- post-emergence efficacy VIOTR (Viola tricolor [26]; 80 g/ha): 90%
- post-emergence efficacy VIOTR (Viola tricolor [26]; 320 g/ha): 90%
- logP (HCOOH) (logP (HCOOH); HCOOH): oily; logP (HCOOH): 2.02; 1H NMR (CDCl3, 400 MHZ, δ in ppm): 2.10 (m, 1H, 1H of

- chromatographic logP (logP (HCOOH)): 2.62
Structure (SMILES): Cc1cc2c(s1)CCC[C@H]2Nc1ncc(C(F)(F)F)c(N)n1 [compound 47, N2-[(4R)-2-Methyl-4,5,6,7-tetrahydrobenzothiophen-4-yl]-5-(trifluoromethyl)pyrimidine-2,4-diamine]
- ABUTH pre-emergence efficacy (herbicidal activity) (Abutilon theophrasti [1]; Dosage 80 g/ha): 80%
- ABUTH pre-emergence efficacy (herbicidal activity) (Abutilon theophrasti [1]; Dosage 320 g/ha): 100%
- ALOMY pre-emergence efficacy (herbicidal activity) (Alopecurus myosuroides [2]; Dosage 80 g/ha): 80%
- ALOMY pre-emergence efficacy (herbicidal activity) (Alopecurus myosuroides [2]; Dosage 320 g/ha): 100%
- AMARE pre-emergence efficacy (herbicidal activity) (Amaranthus retroflexus [3]; Dosage 80 g/ha): 100%
- AMARE pre-emergence efficacy (herbicidal activity) (Amaranthus retroflexus [3]; Dosage 320 g/ha): 100%
- AVEFA pre-emergence efficacy (herbicidal activity) (Avena fatua [4]): 100%
- CYPES pre-emergence efficacy (herbicidal activity) (Cyperus esculentus): 80%
- ECHCG pre-emergence efficacy (herbicidal activity) (Echinochloa crus-galli [5]; Dosage 80 g/ha): 100%
- ECHCG pre-emergence efficacy (herbicidal activity) (Echinochloa crus-galli [5]; Dosage 320 g/ha): 100%
- PHBPU pre-emergence efficacy (herbicidal activity) (Ipomoea purpurea [6]; Dosage 80 g/ha): 100%
- PHBPU pre-emergence efficacy (herbicidal activity) (Ipomoea purpurea [6]; Dosage 320 g/ha): 100%
- LOLMU pre-emergence efficacy (herbicidal activity) (Lolium multiflorum [7]; Dosage 320 g/ha): 100%
- MATIN pre-emergence efficacy (herbicidal activity) (Matricaria inodora [8]; Dosage 80 g/ha): 100%
- MATIN pre-emergence efficacy (herbicidal activity) (Matricaria inodora [8]; Dosage 320 g/ha): 100%
- POLCO pre-emergence efficacy (herbicidal activity) (Polygonum convolvulus [9]; Dosage 80 g/ha): 100%
- POLCO pre-emergence efficacy (herbicidal activity) (Polygonum convolvulus [9]; Dosage 320 g/ha): 100%
- SETVI pre-emergence efficacy (herbicidal activity) (Setaria viridis [10]; Dosage 80 g/ha): 100%
- SETVI pre-emergence efficacy (herbicidal activity) (Setaria viridis [10]; Dosage 320 g/ha): 100%
- STEME pre-emergence efficacy (herbicidal activity) (Stellaria media [11]; Dosage 80 g/ha): 100%
- STEME pre-emergence efficacy (herbicidal activity) (Stellaria media [11]; Dosage 320 g/ha): 100%
- VERPE pre-emergence efficacy (herbicidal activity) (Veronica persica [12]; Dosage 80 g/ha): 100%
- VERPE pre-emergence efficacy (herbicidal activity) (Veronica persica [12]; Dosage 320 g/ha): 100%
- VIOTR pre-emergence efficacy (herbicidal activity) (Viola tricolor [13]; Dosage 80 g/ha): 100%
- VIOTR pre-emergence efficacy (herbicidal activity) (Viola tricolor [13]; Dosage 320 g/ha): 100%
- post-emergence efficacy ABUTH (Abutilon theophrasti [14]; 80 g/ha): 90%
- post-emergence efficacy ABUTH (Abutilon theophrasti [14]; 320 g/ha): 90%
- post-emergence efficacy ALOMY (Alopecurus myosuroides [15]; 320 g/ha): 100%
- post-emergence efficacy AMARE (Amaranthus retroflexus [16]; 320 g/ha): 90%
- post-emergence efficacy AVEFA (Avena fatua [17]; 80 g/ha): 100%
- post-emergence efficacy AVEFA (Avena fatua [17]; 320 g/ha): 90%
- post-emergence efficacy ECHCG (Echinochloa crus-galli [18]; 80 g/ha): 100%
- post-emergence efficacy ECHCG (Echinochloa crus-galli [18]; 320 g/ha): 100%
- post-emergence efficacy PHBPU (Ipomoea purpurea [19]; 80 g/ha): 100%
- post-emergence efficacy PHBPU (Ipomoea purpurea [19]; 320 g/ha): 100%
- post-emergence efficacy LOLMU (Lolium multiflorum [20]; 320 g/ha): 80%
- post-emergence efficacy MATIN (Matricaria inodora [21]; 80 g/ha): 90%
- post-emergence efficacy MATIN (Matricaria inodora [21]; 320 g/ha): 100%
- post-emergence efficacy POLCO (Polygonum convolvulus [22]; 80 g/ha): 80%
- post-emergence efficacy POLCO (Polygonum convolvulus [22]; 320 g/ha): 80%
- post-emergence efficacy SETVI (Setaria viridis [23]; 80 g/ha): 90%
- post-emergence efficacy SETVI (Setaria viridis [23]; 320 g/ha): 90%
- post-emergence efficacy STEME (Stellaria media [24]; 80 g/ha): 100%
- post-emergence efficacy STEME (Stellaria media [24]; 320 g/ha): 100%
- post-emergence efficacy VERPE (Veronica persica [25]; 80 g/ha): 100%
- post-emergence efficacy VIOTR (Viola tricolor [26]; 80 g/ha): 100%
- post-emergence efficacy VIOTR (Viola tricolor [26]; 320 g/ha): 100%

- chromatographic logP (logP (HCOOH)): 2.23
- melting point: 182.6 °C
Structure (SMILES): Cc1cc2c(o1)CC(C)(C)CC2Nc1ncc(C(F)(F)F)c(N)n1 (stereo not shown) [compound 21, 5-(Trifluoromethyl)-N2-(2,6,6-trimethyl-4,5,6,7-tetrahydro-1-benzofuran-4-yl)pyrimidine-2,4-diamine]
